Columns and labels:
[1] = Oatp1a/b−/− compared to wild-type mice after intravenous administration; Iusuf et al.; cited from earlier work
in vivo = settings: male, mouse, po, 10 mg/kg; for AUC(0-t): AUC0-24 h
Experimental: The Jevtana (10 mg/mL) solution contains 0.26 mg/mL polysorbate 80 and 15% (w/v) ethanol, and is adjusted to pH 2-6 with citric acid. […] The stock solution was further diluted 5-fold with water to reach a 2.5 mg/mL dosing solution for oral administration. The vehicle solution only consists of polysorbate 80, ethanol and water (1:1:8, v/v/v). […] All dosing solutions were prepared freshly on the day of the experiment.
At the termination time point of 24 hours, mice were anesthetized using an isoflurane evaporator with 3% isoflurane with 0.8 L/min air and 0.3 L/min oxygen. A final blood sample was taken using cardiac puncture, using Eppendorf tubes previously prepared with heparin as an anticoagulant. Subsequently, the anesthetized mice were sacrificed by cervical dislocation and the tissues of interest were collected. Brain, liver, spleen, kidney, small intestine, and testis were collected. The small intestinal content (SIC) was separately collected by removing this from the small intestinal tissue, which was subsequently rinsed with saline to remove possibly fecal residue. The blood samples were centrifuged at 9,000×g for 6 minutes at 4° C., and the plasma fraction was isolated and stored at −30° C. until analysis. Brain, liver, spleen, kidney, small intestinal tissue, SIC, and testis were homogenized in a FastPrep-24™ 5G homogenizer (M. P. Biomedicals, Santa Ana, CA, USA) for 1 min with 1, 3, 1, 2, 3, 2, and 1 mL of 2% (w/v) BSA in Milli-Q water, respectively. Until analysis of the samples, they were all stored at −30° C.
Pharmacokinetic parameters were estimated by non-compartmental analysis using the software package of PK solutions 2.0.2 (SUMMIT, Research Service). The area under the curve (AUC) of the plasma-concentration time curve for all the compounds was calculated using the linear trapezoidal rule without extrapolating to infinity. The peak plasma concentration (Cmax) and the time to reach peak plasma concentration (Tmax) were obtained directly from the individual raw data. For the statistical analysis and the graphs GraphPad Prism 9 (GraphPad Software Inc., La Jolla, CA, USA) was used. The statistics for the comparison of multiple groups were calculated with the one-way analysis of variance (ANOVA), whereas Sidak's post hoc correction was performed. Log-transformation before statistical analysis was applied, when variances within the groups were not homogeneously distributed. Differences were considered statistically significant when P<0.05. All data are presented as geometric mean±SD.

[2] = chemically castrated men compared to non-castrated patients; cited from earlier work
[3] = Plasma pharmacokinetics and tissue distribution 2 h after oral cabazitaxel 10 mg/kg with vehicle or 25 mg/kg ritonavir in wild-type, Oatp1a/1b−/−, Oatp1a/1b/2b1−/−, OATP1B1- and OATP1B3-transgenic mice; format: in vivo; settings: for reduction of SIC recovered percentage of dose corrected for the plasma AUC: vehicle + oral cabazitaxel 10 mg/kg, 2 h; for Cmax / Tmax / AUC(0-t): male, FVB, mouse, plasma, po, 10 mg/kg, vehicle pretreatment, oral 10 mg/kg cabazitaxel; for AUC(0-t): 0-2 h, read-out: AUC0-2 h
Experimental: All animals were fasted 2 to 3 hours prior to the start of the experiment to minimize variation in absorption after oral administration. […] Subsequently, cardiac puncture was performed with a heparinized needle and syringe collecting a final blood sample. […] All samples were stored at −30° C. until analysis.
Differences were considered statistically significant when P<0.05. All data are presented as geometric mean±SD.

[4] = Cyp3aXAV (human CYP3A in Cyp3a−/−, FVB background)

CC(=O)O[C@@]12CO[C@@H]1C[C@H](O)[C@@]1(C)C(=O)[C@H](O)C3=C(C)[C@@H](OC(=O)[C@H](O)[C@@H](NC(=O)OC(C)(C)C)c4ccccc4)C[C@@](O)([C@@H](OC(=O)c4ccccc4)[C@H]21)C3(C)C [docetaxel]
increase in plasma AUC [1]: 3 fold
AUC0-24 h (in vivo; [4]): 271 nM·h
AUC(0-t) (in vivo; [4]): 0.285 µM·h
AUC(0-t) (in vivo; FVB, Cyp3aXAV): 0.681 µM·h
AUC(0-t) (in vivo; FVB, wild-type): 0.707 µM·h
Cmax (in vivo; FVB, wild-type, Cmax): 119 nM
reduction of plasma AUC [2]: 2 fold
reduction of SIC recovered percentage of dose corrected for the plasma AUC ([3]; Oatp1a/1b/2b1−/− compared to wild-type mice): 2.9 fold
reduction of SIC recovered percentage of dose corrected for the plasma AUC ([3]; Oatp1a/1b−/− compared to wild-type mice): 4.0 fold
Cmax ([3]; OATP1B1-transgenic mice): 206 ± 105 nM
Tmax ([3]; OATP1B1-transgenic mice): 35 min
AUC(0-t) ([3]; OATP1B1-transgenic mice): 0.271 ± 0.144 µM·h
Cmax ([3]; OATP1B3-transgenic mice): 248 ± 145 nM
Tmax ([3]; OATP1B3-transgenic mice): 45 min
AUC(0-t) ([3]; OATP1B3-transgenic mice): 0.305 ± 0.177 µM·h
Cmax ([3]; Oatp1a/1b/2b1−/− mice): 202 ± 65 nM
Tmax ([3]; Oatp1a/1b/2b1−/− mice): 35 min
AUC(0-t) ([3]; Oatp1a/1b/2b1−/− mice): 0.252 ± 0.069 µM·h
Cmax ([3]; Oatp1a/1b−/− mice): 191 ± 43 nM
Tmax ([3]; Oatp1a/1b−/− mice): 35 min
AUC(0-t) ([3]; Oatp1a/1b−/− mice): 0.216 ± 0.047 µM·h
Cmax ([3]; wild-type mice): 84 ± 30 nM
Tmax ([3]; wild-type mice): 25 min
AUC(0-t) ([3]; wild-type mice): 0.091 ± 0.043 µM·h
